Data as given in US20180201647A1, “Peptoid” (The University of Durham, priority 2015, published 2018).
Where a SMILES comes first, the peptide text is derived from it. [ ]: non-standard residue; d: D form. Nspe = C[C@H](NCC(=O)O)c1ccccc1; NhArg = N=C(N)NCCCCNCC(=O)O; Nlys = NCCCCNCC(=O)O

Assays:
Type in all cases: cell-based
[1] = test system: T. cruzi Tulahuen strain C2C4; experiment: microbe, parasite or virus in culture; settings: for IC50: in L-6 cells, 96 h, read-out: IC50 T. cruzi; for active against T. cruzi: statement in words
Protocol: Rat skeletal myoblasts (L-6 cells) were seeded in 96-well microtitre plates at 2000 cells/well in 100 μL RPMI 1640 medium with 10% FBS and 2 mM 1-glutamine. After 24 h the medium was removed and replaced by 100 μl per well containing 5000 trypomastigote forms of T. cruzi Tulahuen strain C2C4 containing the β-galactosidase (Lac Z) gene. After 48 h the medium was removed from the wells and replaced by 100 μl fresh medium with or without a serial drug dilution of eleven 3-fold dilution steps covering a range from 100 to 0.002 μg/ml. After 96 h of incubation the plates were inspected under an inverted microscope to assure growth of the controls and sterility. Then the substrate CPRG/Nonidet (50 μl) was added to all wells. A color reaction developed within 2-6 h and could be read photometrically at 540 nm. Data were analyzed with the graphic programme Softmax Pro (Molecular Devices), which calculated IC50 values by linear regression from the sigmoidal dose inhibition curves. Benznidazole is used as control (IC50 0.5+0.2 μg/ml).

[2] = test system: Leishmania mexicana (M379); settings: for IC50: parasite stage not given, read-out: IC50 L. mexicana; for active against L. mexicana: statement in words
Protocol: Leishmania mexicana (M379) promastigote parasites were maintained at 26° C. in Schneider's Insect medium (Sigma-Aldrich) supplemented with heat-inactivated foetal bovine sera (FBS, 15%; Biosera Ltd). Cells were counted using a Neubauer Improved Haemocytometer. Promastigotes were transformed into axenic amastigotes by a pH and temperature shift as previously described. A culture of recently transformed (three days) promastigotes in the late log phase was transferred into Schneider's Insect medium supplemented with 20% heat-inactivated FBS (pH 5.5) at 5×10^5 parasites/mL. After 6 days, the parasites were in the metacyclic stage and used for transformation to amastigote-like forms by transfer in the same medium at 32° C. at 5×10^5 parasites/mL. After additional 5-7 days, the parasites should be in the amastigote stage and be ready for cytotoxicity studies and infections.
Cytotoxicity analyses were performed in 96-well plates (Costar, Fisher Scientific) using Alamar Blue (Invitrogen) for cell viability detection as previously described.
Promastigote and amastigote L. mexicana were pre-incubated with the compounds in triplicate (5 mM stock solutions in DMSO; Amphotericin B was used as a positive control; untreated parasites with DMSO as a negative control) in 50 μl of the corresponding media at 4×106 mL-1 for 1 hour. Afterwards, 40 μl were removed from each well before the addition of 90 μl of the corresponding media, followed by incubation for 24 hours at 4×105 mL-1. Then, 10 μl Alamar Blue solution (Invitrogen) was added to each well for an incubation of 4 hours prior to assessing cell viability using a fluorescent plate reader (Biotek; Ex 560 nm/Em 600 nm). To investigate the effects of serum on the efficacy of the peptoids, the assay described above was modified using serum-free medium for the pre-incubation time. For these assays, the parasites were washed three times in serum-free medium before adding them to the compound solutions. All of the experiments described above were carried out on a minimum of two separate occasions to ensure a robust data set was collected.

[3] = test system: erythrocytic stages of P. falciparum; settings: for active against P. falciparum: statement in words; for IC50: strain (NF54 or K1) not given
Protocol: In vitro activity against erythrocytic stages of P. falciparum was determined using a 3H-hypoxanthine incorporation assay using the drug sensitive NF54 strain (Schipol airport) or the chloroquine and pyrimethamine resistant K1 strain that originate from Thailand and the standard drug chloroquine (Sigma C6628). Compounds were dissolved in DMSO at 10 mg/ml and added to parasite cultures incubated in RPMI 1640 medium without hypoxanthine, supplemented with HEPES (5.94 g/l), NaHCO3 (2.1 g/1), neomycin (100 U/ml), Albumax® (5 g/l) and washed human red cells A^+ at 2.5% haematocrit (0.3% parasitaemia). Serial drug dilutions of eleven 3-fold dilution steps covering a range from 100 to 0.002 μg/ml were prepared. The 96-well plates were incubated in a humidified atmosphere at 37° C.; 4% CO2, 3% O2, 93% N2. After 48 h 50 μl of 3H-hypoxanthine (=0.5 μCi) was added to each well of the plate. The plates were incubated for a further 24 h under the same conditions. The plates were then harvested with a Betaplate™ cell harvester (Wallac, Zurich, Switzerland), and the red blood cells transferred onto a glass fibre filter then washed with distilled water. The dried filters were inserted into a plastic foil with 10 ml of scintillation fluid, and counted in a Betaplate™ liquid scintillation counter (Wallac, Zurich, Switzerland). IC50 values were calculated from sigmoidal inhibition curves by linear regression using Microsoft Excel. Chloroquine and artemisinin are used as control.

[4] = test system: Trypanosoma brucei rhodesiense STIB900; settings: for IC50: 70 h; for active against T. brucei rhodesiense: statement in words
Protocol: This stock was isolated in 1982 from a human patient in Tanzania and after several mouse passages cloned and adapted to axenic culture conditions. Minimum Essential Medium (50 μl) supplemented with 25 mM HEPES, 1 g/l additional glucose, 1% MEM non-essential amino acids (100×), 0.2 mM 2-mercaptoethanol, 1 mM Na-pyruvate and 15% heat inactivated horse serum was added to each well of a 96-well microtiter plate. Serial drug dilutions of eleven 3-fold dilution steps covering a range from 100 to 0.002 μg/ml were prepared. Then 4×10^3 bloodstream forms of T. b. rhodesiense STIB 900 in 50 μl was added to each well and the plate incubated at 37° C. under a 5% CO2 atmosphere for 70 h. 10 μl Alamar Blue (resazurin, 12.5 mg in 100 ml double-distilled water) was then added to each well and incubation continued for a further 2-4 h. Then the plates were read with a Spectramax Gemini XS microplate fluorometer (Molecular Devices Cooperation, Sunnyvale, Calif., USA) using an excitation wave length of 536 nm and an emission wave length of 588 nm. The IC50 values were calculated by linear regression from the sigmoidal dose inhibition curves using SoftmaxPro software (Molecular Devices Cooperation, Sunnyvale, Calif., USA). Melarsoprol (Arsobal Sanofi-Aventis, received from WHO) is used as control.

SMILES: C[C@@H](c1ccccc1)N(CC(N)=O)C(=O)CN(C(=O)CN(CCCCN)C(=O)CN(C(=O)CN(C(=O)CN(CCCCNC(=N)N)C(=O)CN(C(=O)CN(C(=O)CN(CCCCN)C(=O)CN(C(=O)CN(C(=O)CNCCCCNC(=N)N)[C@@H](C)c1ccccc1)[C@@H](C)c1ccccc1)[C@@H](C)c1ccccc1)[C@@H](C)c1ccccc1)[C@@H](C)c1ccccc1)[C@@H](C)c1ccccc1)[C@@H](C)c1ccccc1 [Peptoid 4, [(NhArg-Nspe-Nspe)(NLys-Nspe-Nspe)]2] (H-[NhArg][Nspe][Nspe][Nlys][Nspe][Nspe][NhArg][Nspe][Nspe][Nlys][Nspe][Nspe]-NH2; N-terminus assumed)
- IC50 [1]: 21.5 µM
- active against T. cruzi [1]: active
- IC50 [2]: 37 µM
- active against L. mexicana [2]: active
- active against P. falciparum [3]: active
- IC50 [3]: 2720 nM
- IC50 [4]: 16.7 µM
- active against T. brucei rhodesiense [4]: active

SMILES: C[C@@H](c1ccccc1)N(CC(N)=O)C(=O)CN(C(=O)CN(CCCCNC(=N)N)C(=O)CN(C(=O)CN(C(=O)CN(CCCCNC(=N)N)C(=O)CN(C(=O)CN(C(=O)CN(CCCCN)C(=O)CN(C(=O)CN(C(=O)CNCCCCN)[C@@H](C)c1ccccc1)[C@@H](C)c1ccccc1)[C@@H](C)c1ccccc1)[C@@H](C)c1ccccc1)[C@@H](C)c1ccccc1)[C@@H](C)c1ccccc1)[C@@H](C)c1ccccc1 [Peptoid 1, (NLys-Nspe-Nspe)2(NhArg-Nspe-Nspe)2] (H-[Nlys][Nspe][Nspe][Nlys][Nspe][Nspe][NhArg][Nspe][Nspe][NhArg][Nspe][Nspe]-NH2; N-terminus assumed)
- IC50 [1]: 12.3 µM
- active against T. cruzi [1]: active
- IC50 [2]: 37 µM
- active against L. mexicana [2]: active
- active against P. falciparum [3]: active
- IC50 [3]: 1500 nM
- IC50 [4]: 6.73 µM
- active against T. brucei rhodesiense [4]: active
